Test results as given in ChEMBL document CHEMBL1909046, “DrugMatrix in vitro pharmacology data”.

Assays:
[1] = target: Beta-3 adrenergic receptor (Homo sapiens, UniProt P13945); experiment: DRUGMATRIX: Adrenergic beta3 radioligand binding (ligand: [125I] Cyanopindolol); format: cell membranes, HEK293, Membrane; details: hek293; Not Active = under 50% inhibition at 10 µM
Thromboxane-A synthase = target: T1, Thromboxane-A synthase (Homo sapiens, UniProt P24557); experiment: biochemical; format: tissue-based, Platelet;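 note: enzyme inhibition assay with PGH2 supplied as substrate; in other assays of this panel Not Active means under 50% inhibition at 10 µM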
T1 sequence (P24557 whole entry): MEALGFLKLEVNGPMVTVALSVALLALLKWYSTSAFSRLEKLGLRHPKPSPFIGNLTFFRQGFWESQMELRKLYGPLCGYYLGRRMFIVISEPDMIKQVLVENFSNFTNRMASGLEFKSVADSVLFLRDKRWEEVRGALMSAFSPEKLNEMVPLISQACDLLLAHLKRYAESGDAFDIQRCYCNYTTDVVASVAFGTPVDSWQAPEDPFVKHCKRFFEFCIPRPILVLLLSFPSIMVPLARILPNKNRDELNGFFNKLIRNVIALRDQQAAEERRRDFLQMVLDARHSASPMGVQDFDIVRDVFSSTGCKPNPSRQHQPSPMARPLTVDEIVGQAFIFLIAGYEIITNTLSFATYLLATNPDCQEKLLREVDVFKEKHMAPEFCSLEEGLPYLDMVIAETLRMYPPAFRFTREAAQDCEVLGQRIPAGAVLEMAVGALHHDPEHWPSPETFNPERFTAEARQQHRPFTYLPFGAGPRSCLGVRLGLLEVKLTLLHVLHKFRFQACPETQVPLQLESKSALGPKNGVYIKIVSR

[2] = DRUGMATRIX: Glutamate, Kainate radioligand binding (ligand: [3H] Kainic acid); format: cell membranes, Rattus norvegicus, Wistar, Brain, Membrane; details: Not Active = under 50% inhibition at 10 µM
Carbonic anhydrase 2 = Carbonic anhydrase 2 (Homo sapiens, UniProt P00918); experiment: DRUGMATRIX: Carbonic Anhydrase II enzyme inhibition (substrate: 4-Nitrophenyl acetate (4-NPA)); format: tissue-based, Erythrocyte; details: erythrocyte; Not Active = under 50% inhibition at 10 µM
[3] = target: T2, Muscarinic acetylcholine receptor M2 (Homo sapiens, UniProt P08172); format: cell membranes, CHO-K1, Membrane; note: in other assays of this panel Not Active means under 50% inhibition at 10 µM
T2 sequence (P08172 whole entry): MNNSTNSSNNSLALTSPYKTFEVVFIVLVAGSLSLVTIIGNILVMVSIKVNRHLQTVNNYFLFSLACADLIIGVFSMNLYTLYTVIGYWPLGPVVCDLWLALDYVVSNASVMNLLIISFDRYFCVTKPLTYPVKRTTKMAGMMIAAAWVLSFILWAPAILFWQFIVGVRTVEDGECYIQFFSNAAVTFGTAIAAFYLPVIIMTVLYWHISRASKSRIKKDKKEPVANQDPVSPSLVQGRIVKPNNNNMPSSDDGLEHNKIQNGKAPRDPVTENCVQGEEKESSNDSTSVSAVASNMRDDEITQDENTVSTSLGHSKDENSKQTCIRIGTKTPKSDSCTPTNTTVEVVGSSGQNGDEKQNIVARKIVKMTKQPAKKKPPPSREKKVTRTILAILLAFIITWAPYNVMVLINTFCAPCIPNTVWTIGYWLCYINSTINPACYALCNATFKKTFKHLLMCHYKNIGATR

Cannabinoid receptor 1 = Cannabinoid receptor 1 (Homo sapiens, UniProt P21554); format: cell membranes, Chem-1, Membrane; details: chem-1; note: in other assays of this panel Not Active means under 50% inhibition at 10 µM
Chain of Cannabinoid receptor 1 (P21554 whole entry): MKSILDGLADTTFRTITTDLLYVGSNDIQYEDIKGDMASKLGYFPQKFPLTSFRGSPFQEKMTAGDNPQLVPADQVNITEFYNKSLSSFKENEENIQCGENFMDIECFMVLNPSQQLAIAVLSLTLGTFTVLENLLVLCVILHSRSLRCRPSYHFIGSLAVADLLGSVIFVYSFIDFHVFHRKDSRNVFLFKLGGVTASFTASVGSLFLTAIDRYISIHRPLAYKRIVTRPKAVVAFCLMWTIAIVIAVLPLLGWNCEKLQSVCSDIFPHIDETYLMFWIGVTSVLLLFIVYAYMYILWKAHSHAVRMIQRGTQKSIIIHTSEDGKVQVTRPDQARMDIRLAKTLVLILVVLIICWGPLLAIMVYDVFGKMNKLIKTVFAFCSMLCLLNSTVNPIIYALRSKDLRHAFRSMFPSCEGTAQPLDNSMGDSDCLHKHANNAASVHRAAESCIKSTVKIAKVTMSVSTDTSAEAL

Chain of Beta-3 adrenergic receptor (P13945 whole entry): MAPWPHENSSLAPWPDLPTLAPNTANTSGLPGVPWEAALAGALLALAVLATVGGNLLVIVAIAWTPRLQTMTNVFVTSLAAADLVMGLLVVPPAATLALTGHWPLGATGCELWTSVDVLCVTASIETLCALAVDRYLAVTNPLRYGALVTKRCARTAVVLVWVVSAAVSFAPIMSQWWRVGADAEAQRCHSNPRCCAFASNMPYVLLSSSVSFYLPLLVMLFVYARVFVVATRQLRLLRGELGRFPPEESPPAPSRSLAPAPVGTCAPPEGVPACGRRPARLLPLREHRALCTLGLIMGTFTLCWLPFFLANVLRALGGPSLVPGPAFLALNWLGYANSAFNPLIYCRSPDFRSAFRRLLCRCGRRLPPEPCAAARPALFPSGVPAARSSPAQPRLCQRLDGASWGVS

Row | Molecule | IC50 [1] | IC50 (Thromboxane-A synthase; platelet) | IC50 [2] | Ki [2] | IC50 (Carbonic anhydrase 2) | IC50 ([3]; read-out: IC50) | Ki ([3]; read-out: Ki) | IC50 (Cannabinoid receptor 1) | IC50 ([3]; cho-k1) | IC50 (Thromboxane-A synthase; read-out: IC50) | Ki [1] | Ki (Thromboxane-A synthase; platelet) | Ki (Carbonic anhydrase 2) | Ki ([3]; cho-k1) | Ki (Cannabinoid receptor 1)
1 | CCN(CCO)CCCC(C)Nc1ccnc2cc(Cl)ccc12 (configuration not stated) [HYDROXYCHLOROQUINE] | Not Active | Not Active | Not Active | Not Active | Not Active | 2950 nM | 1050 nM | Not Active | – | – | – | – | – | – | –
2 | O=C(O)COC(=O)Cc1ccccc1Nc1c(Cl)cccc1Cl [ACECLOFENAC] | Not Active | Not Active | Not Active | Not Active | Not Active | – | – | Not Active | Not Active | – | – | – | – | – | –
3 | O=C(O)CCc1nc(-c2ccccc2)c(-c2ccccc2)o1 [OXAPROZIN] | Not Active | Not Active | Not Active | Not Active | Not Active | – | – | Not Active | Not Active | – | – | – | – | – | –
4 | C=CCN1CC[C@]23c4c5ccc(O)c4O[C@H]2/C(=N/N=C2\CC[C@@]4(O)[C@H]6Cc7ccc(O)c8c7[C@@]4(CCN6CC=C)[C@H]2O8)CC[C@@]3(O)[C@H]1C5 [NALOXONAZINE] | Not Active | Not Active | Not Active | Not Active | Not Active | – | – | Not Active | Not Active | – | – | – | – | – | –
5 | O=C(O)CO [GLYCOLIC ACID] | Not Active | Not Active | Not Active | Not Active | Not Active | – | – | Not Active | Not Active | – | – | – | – | – | –
6 | COC(=O)Nc1nc2ccc(Sc3ccccc3)cc2[nH]1 [FENBENDAZOLE] | Not Active | Not Active | Not Active | Not Active | Not Active | – | – | Not Active | Not Active | – | – | – | – | – | –
7 | CC12CCC(CC1)C(C)(C)O2 [EUCALYPTOL] | Not Active | Not Active | Not Active | Not Active | Not Active | – | – | Not Active | Not Active | – | – | – | – | – | –
8 | O=C(Nc1ccc(Cl)c(Cl)c1)c1cc(Cl)cc(Cl)c1O [3,3',4',5-TETRACHLOROSALICYLANILIDE] | Not Active | – | Not Active | Not Active | Not Active | – | – | Not Active | Not Active | 4930 nM | – | – | – | – | –
9 | Cc1ccnc2c1NC(=O)c1cccnc1N2C1CC1 [NEVIRAPINE] | Not Active | Not Active | Not Active | Not Active | Not Active | – | – | Not Active | Not Active | – | – | – | – | – | –
10 | O=C1CN(/N=C/c2ccc([N+](=O)[O-])o2)C(=O)N1 [NITROFURANTOIN] | Not Active | Not Active | Not Active | Not Active | Not Active | – | – | Not Active | Not Active | – | – | – | – | – | –
11 | O=c1[nH]c2ccccc2c2ccccc12 | Not Active | Not Active | Not Active | Not Active | Not Active | – | – | Not Active | Not Active | – | – | – | – | – | –
12 | COC(=O)C[C@](O)(CCC(C)(C)O)C(=O)O[C@@H]1C(OC)=C[C@]23CCCN2CCc2cc4c(cc2[C@H]13)OCO4 [HARRINGTONINE] | Not Active | Not Active | Not Active | Not Active | Not Active | – | – | Not Active | Not Active | – | – | – | – | – | –
13 | Nc1nc(F)nc2c1ncn2[C@@H]1O[C@H](CO)[C@@H](O)[C@@H]1O [FLUDARABINE] | Not Active | Not Active | Not Active | Not Active | Not Active | – | – | Not Active | Not Active | – | – | – | – | – | –
14 | C=C(Cl)Cl [1,1-DICHLOROETHENE] | Not Active | Not Active | Not Active | Not Active | Not Active | – | – | Not Active | Not Active | – | – | – | – | – | –
15 | CC[C@H]1OC(=O)[C@H](C)[C@@H](O[C@H]2C[C@@](C)(OC)[C@@H](O)[C@H](C)O2)[C@H](C)[C@@H](O[C@@H]2O[C@H](C)C[C@H](N(C)C)[C@H]2O)[C@](C)(O)C[C@@H](C)C(=O)[C@H](C)[C@@H](O)[C@]1(C)O [ERYTHROMYCIN] | Not Active | Not Active | Not Active | Not Active | Not Active | – | – | Not Active | Not Active | – | – | – | – | – | –
16 | CCC1(c2ccccc2)C(=O)NC(=O)NC1=O [PHENOBARBITAL] | Not Active | Not Active | Not Active | Not Active | Not Active | – | – | Not Active | Not Active | – | – | – | – | – | –
17 | CCN1C[C@]2(COC)[C@H](O)C[C@H](OC)[C@@]34[C@@H]5C[C@@]6(O)[C@H](OC(=O)c7ccccc7)[C@@H]5[C@@](OC(C)=O)([C@@H]([C@H](OC)[C@H]23)[C@@H]14)[C@@H](O)[C@@H]6OC [ACONITINE] | Not Active | Not Active | Not Active | Not Active | Not Active | – | – | Not Active | Not Active | – | – | – | – | – | –
18 | CCN1CCN(C(=O)N[C@@H](C(=O)N[C@@H]2C(=O)N3[C@@H]2SC(C)(C)[C@@H]3C(=O)O)c2ccccc2)C(=O)C1=O [PIPERACILLIN] | Not Active | Not Active | Not Active | Not Active | Not Active | – | – | Not Active | Not Active | – | – | – | – | – | –
19 | O=C(O)c1ccccc1 [BENZOIC ACID] | Not Active | Not Active | Not Active | Not Active | Not Active | – | – | Not Active | Not Active | – | – | – | – | – | –
20 | OC[C@H]1O[C@@H]2O[C@H]3[C@H](O)[C@@H](O)[C@@H](O[C@H]4[C@H](O)[C@@H](O)[C@@H](O[C@H]5[C@H](O)[C@@H](O)[C@@H](O[C@H]6[C@H](O)[C@@H](O)[C@@H](O[C@H]7[C@H](O)[C@@H](O)[C@@H](O[C@H]1[C@H](O)[C@H]2O)O[C@@H]7CO)O[C@@H]6CO)O[C@@H]5CO)O[C@@H]4CO)O[C@@H]3CO [ALFADEX] | Not Active | Not Active | Not Active | Not Active | Not Active | – | – | Not Active | Not Active | – | – | – | – | – | –
21 | c1ccc2sc(SSc3nc4ccccc4s3)nc2c1 [BENZOTHIAZYL DISULFIDE] | Not Active | Not Active | Not Active | Not Active | Not Active | – | – | Not Active | Not Active | – | – | – | – | – | –
22 | CNC[C@H](O)c1ccc(O)c(O)c1 [EPINEPHRINE] | Not Active | Not Active | Not Active | Not Active | Not Active | – | – | Not Active | Not Active | – | – | – | – | – | –
23 | POVIDONE | Not Active | Not Active | Not Active | Not Active | Not Active | – | – | Not Active | Not Active | – | Not Active | Not Active | Not Active | Not Active | Not Active
24 | C=CCO [ALLYL ALCOHOL] | Not Active | Not Active | Not Active | Not Active | Not Active | – | – | Not Active | Not Active | – | – | – | – | – | –
25 | CHROMIC CHLORIDE | Not Active | Not Active | Not Active | Not Active | Not Active | – | – | Not Active | Not Active | – | Not Active | Not Active | Not Active | Not Active | Not Active
26 | Clc1cc(Cl)c(OCC#CI)cc1Cl [HALOPROGIN] | Not Active | Not Active | Not Active | Not Active | Not Active | – | – | Not Active | Not Active | – | – | – | – | – | –
27 | C[N+](C)(C)CCOP(=O)([O-])OC[C@H](O)CO | Not Active | Not Active | Not Active | Not Active | Not Active | – | – | Not Active | Not Active | – | – | – | – | – | –
28 | COc1ccc(C[C@H](N)C(=O)N[C@H]2[C@@H](O)[C@H](n3cnc4c(N(C)C)ncnc43)O[C@@H]2CO)cc1 [PUROMYCIN] | Not Active | Not Active | Not Active | Not Active | Not Active | – | – | Not Active | Not Active | – | – | – | – | – | –
